The values below come from patent US9005902B2, “Tuberculosis diagnostic test” (priority 1998, dated 2015).

For assay [1], the system named is ESAT-6 peptide-specific IFN-γ-secreting T cells from peripheral blood. It is filed as cell-based, human. Particulars: for % of TB patients responding to individual peptide: peptide 10 μg/ml, 3×10^5 PBMC/well, positive = at least 5 IFN-γ SFCs more than and at least twice negative control.
The test system of a further assay is HLA DR7. Kind of assay: Peptide binding to HLA DR7.
The subject of the next assay is HLA DR1. As to the kind of experiment: Peptide binding to HLA DR1.

For NNALQNLARTISEAG [ES14], in assay [1], the “% of TB patients responding to individual peptide” value (“% of TB patients responding” below) stood at 28%. The “Detection of ESAT-6-specific CD8 T cells” value in assay [1] (peptide contains CD8 epitopes) is recorded as “detected”. Regarding “EGKQSLTKLAAAWGG (listed as Mycobacterium tuberculosis) [ES7, 15-mer peptide from ESAT-6 of M. tuberculosis]”, the “% of TB patients responding” value in assay [1] amounted to 15%. Consider “MTEQQWNFAGIEAAA (listed as Mycobacterium tuberculosis) [ES1, 15-mer peptide from ESAT-6 of M. tuberculosis]”, for which the “% of TB patients responding” value in assay [1] is given as 57%. The “% of healthy contacts tested recognising the peptide” value in assay [1] (healthy contacts exposed to open pulmonary tuberculosis) came out at 68%. Further, in assay [1] (out of 22 contacts with prolonged exposure to smear positive index case, Heaf test grade 3 or 4), the “Number of contacts testing positive” value is listed as 15. Besides, the “Binding to HLA DR7” value with HLA DR7 is reported as “binds”. For the same sequence, the “Binding to HLA DR1” value in the assay on HLA DR1 is “binds”. As to YQGVQQKWDATATEL [ES11], in assay [1], the “% of TB patients responding” value came out at 34%. The same measure, in the same setting: with NLARTISEAGQAMAS [ES15] the figure was 34%; with “QKWDATATELNNALQ (listed as Mycobacterium tuberculosis) [ES12, 15-mer peptide from ESAT-6 of M. tuberculosis]”, 25%; with “SAIQGNVTSIHSLLD (listed as Mycobacterium tuberculosis) [ES4, 15-mer peptide from ESAT-6 of M. tuberculosis]”, 23%. Take WNFAGIEAAASAIQG [ES2]: in assay [1], the “% of TB patients responding” value is reported as 40%.
